Series [1] deals with Klebsiella pneumoniae ATCC 43816. Description: Proof-of-concept murine respiratory infection model, IV bolus. The series is classed as in vivo. The settings on record: CD-1 mice, 20 mg/kg IV bolus TID, 26 h. The protocol: Compound (I) and comparative compound (III) were evaluated in proof-of-concept studies in murine models for the treatment of a respiratory infection with Gram-negative bacteria of the order Enterobacterales, a bacteraemia or bloodstream infection with Gram-negative bacteria of the order Enterobacterales, and a urinary tract infection with Gram-negative bacteria of the order Enterobacterales. Each dot, triangle or square indicator represents a single mouse. LOD refers to the limit of detection of the bacteria. […] Each of the proof-of-concept studies was carried out separately. By vehicle is meant pharmaceutically acceptable carrier or excipient. For the proof-of-concept study for the treatment of a respiratory infection caused or exacerbated by Gram-negative bacteria of the order Enterobacterales, CD-1 mice were infected with Klebsiella pneumoniae ATCC 43816. Two hours after infection (‘pre-treatment’ in FIG. 2), a vehicle (20% hydroxypropyl β cyclodextrin) containing no compound (I) or comparative compound (III), or a vehicle (20% hydroxypropyl β cyclodextrin) containing compound (I) or comparative compound (III), was administered by IV bolus at 20 mg/kg, TID (8 hrs apart), over one day.

The test system of series [2] is E. coli BAA-2469 (NDM-1 positive). Put plainly: Proof-of-concept murine bacteraemia or bloodstream infection model, IV bolus. In kind it is in vivo. Conditions: CD-1 mice, single dose IV bolus 20 mg/kg. The protocol: Compound (I) and comparative compound (III) were evaluated in proof-of-concept studies in murine models for the treatment of a respiratory infection with Gram-negative bacteria of the order Enterobacterales, a bacteraemia or bloodstream infection with Gram-negative bacteria of the order Enterobacterales, and a urinary tract infection with Gram-negative bacteria of the order Enterobacterales. Each dot, triangle or square indicator represents a single mouse. LOD refers to the limit of detection of the bacteria. […] Each of the proof-of-concept studies was carried out separately. By vehicle is meant pharmaceutically acceptable carrier or excipient.
For the proof-of-concept study for the treatment of a bacteraemia or bloodstream infection with Gram-negative bacteria of the order Enterobacterales, CD-1 mice were infected with human urine isolate E. coli BAA-2469 (NDM-1 positive). One hour after infection (‘pre-treatment’ in FIG. 3), a vehicle (20% hydroxypropyl β cyclodextrin) containing no compound (I) or comparative compound (III), or a vehicle (20% hydroxypropyl β cyclodextrin) containing compound (I) or comparative compound (III), was administered by as a single dose IV bolus at 20 mg/kg.

In series [3] the test system is Klebsiella pneumonia (100 isolates). Description: MIC90 by broth microdilution (EUCAST), 100 isolates of Klebsiella pneumonia. In kind it is cell-based. The settings on record: test concentrations 0.03-64 μg/mL. As for the experimental part: (§1) Minimum Inhibitory Concentration (MIC90) versus 100 isolates of Escherichia coli and Klebsiella pneumonia were determined. The Minimum Inhibitory Concentration at which 90% of the isolates (strains) are inhibited (MIC90) were measured by broth microdilution in line with EUCAST susceptibility testing standards (www.eucast.org). Bacterial inocula were prepared at ca 1×10^6 CFU/mL by diluting 100-fold a 0.5 McFarland suspension. Antibacterial panels containing 50 μl of antibacterial solutions at 2×the final concentrations were diluted 2-fold with 50 μl of inoculum to give a final inoculum of ca 5×10^5 CFU/ml and desired test concentrations of antibacterial agents (0.03-64 μg/mL). The plates were incubated according to the guidelines of the Clinical and Laboratory Standards Institute (Clinical and Laboratory Standards Institute. Methods for Dilution Antimicrobial Susceptibility Tests for Bacteria That Grow Aerobically; Approved Standard-Eleventh Edition, CLSI document […], 11 Jan. 2018). The MIC90 (μg/ml) is the MIC value at which greater than or equal to 90% of the isolates (strains) within a test population are inhibited.
A general note: Broth dilution looks for growth in wells or tubes with falling amounts of substance.

Series [4] relates to Proteus spp. (10 isolates). Put plainly: MIC by broth microdilution versus Proteus spp. isolates. The series is classed as cell-based. The protocol:
as §1, with “inhibited. Minimum Inhibitory Concentrations (MICs) versus Proteus spp. and Providencia spp. were determined for compound (I) and comparative compound (III) using the methodology outlined above for the 100 isolates of Escherichia coli and Klebsiella pneumonia.” for “inhibited.”

In series [5] the test system is E. coli UTI89. Description: Proof-of-concept murine urinary tract infection model, IV bolus. In kind it is in vivo. Conditions: IV bolus 20 mg/kg TID over 3 days, 96 h. As for the experimental part:
Compound (I) and comparative compound (III) were evaluated in proof-of-concept studies in murine models for the treatment of a respiratory infection with Gram-negative bacteria of the order Enterobacterales, a bacteraemia or bloodstream infection with Gram-negative bacteria of the order Enterobacterales, and a urinary tract infection with Gram-negative bacteria of the order Enterobacterales. Each dot, triangle or square indicator represents a single mouse. LOD refers to the limit of detection of the bacteria. […] Each of the proof-of-concept studies was carried out separately. By vehicle is meant pharmaceutically acceptable carrier or excipient. For the proof-of-concept study for the treatment of a urinary tract infection with Enterobacterales, female C3H/HeN mice were infected with E. coli UTI89. Twenty-four hours after infection (‘pre-treatment’ in FIGS. 4a-c), a vehicle (20% hydroxypropyl β cyclodextrin) containing no compound (I) or comparative compound (III), or a vehicle (20% hydroxypropyl β cyclodextrin) containing compound (I) or comparative compound (III), was administered by IV bolus of 20 mg/kg, TID (8 hrs apart), over 3 days.

The test system of series [6] is 44 ligands (including receptors, transporters, ion channels, enzymes and kinases). Put plainly: In vitro safety pharmacology binding assays (CEREP profile). Conditions: 10 μM, 44 ligands tested, radioligand binding. As for the experimental part:
In vitro pharmacology binding assays were carried out for compound (I), comparative compound (II) and comparative compound (III) to evaluate the percentage of inhibition against 44 ligands (including receptors, transporters, ion channels, enzymes and kinases) at a concentration of 10 μM of compound (I), comparative compound (II) or comparative compound (III). Compound binding was calculated as a percentage of inhibition of the binding of a radioactively labelled ligand specific for each target. Results showing an inhibition higher than 50% are considered to represent discernible effects of compound (I), comparative compound (II) or comparative compound (III). […] The in vitro pharmacology binding assays for compound (I) and comparative compounds (II) and (III) was carried out separately over different days, and compared in FIGS. 1a, 1b, 1c, and 1d.

The test system of series [7] is Providencia spp. (10 isolates). Description: MIC by broth microdilution versus Providencia spp. isolates. The series is classed as cell-based. The protocol: as §1, with “inhibited. Minimum Inhibitory Concentrations (MICs) versus Proteus spp. and Providencia spp. were determined for compound (I) and comparative compound (III) using the methodology outlined above for the 100 isolates of Escherichia coli and Klebsiella pneumonia.” for “inhibited.”

For series [8], the system named is Escherichia coli (100 isolates). Description: MIC90 by broth microdilution (EUCAST), 100 isolates of Escherichia coli. Conditions: test concentrations 0.03-64 μg/mL. The series is classed as cell-based. The protocol:
as §1

Series [9] has as its system E. coli UT189. Description: Further proof-of-concept murine urinary tract infection model, intravenous infusion. In kind it is in vivo. The settings on record: 96 h. The protocol:
Compound (I) was evaluated in further proof-of-concept studies in murine models for the treatment of a respiratory infection with Gram-negative bacteria of the order Enterobacterales, and a urinary tract infection with Gram-negative bacteria of the order Enterobacterales. Each dot, triangle or square indicator represents a single mouse. LOD refers to the limit of detection of the bacteria. […] Each of the proof-of-concept studies was carried out separately. By vehicle is meant pharmaceutically acceptable excipient or carrier. For the further proof-of-concept study for the treatment of a urinary tract infection with Enterobacterales, female C3H/HeN mice were infected with E. coli UT189. Twenty-four hours after infection (‘pre-treatment’ in FIGS. 6a-c), mice were either treated with a vehicle control (20% hydroxypropyl β cyclodextrin) containing no compound (I), or a vehicle (20% hydroxypropyl β cyclodextrin) containing compound (I), administered by intravenous infusion for 1 hour (QD) with a dose of 20 mg/kg of compound (I). For some mice who received vehicle containing compound (I), an additional 1-hour continuous intravenous infusion was administered 5 hours after the time at which the first administration begun (BID, 5 hrs apart). The once or twice daily administration was continued for three days. For QD, administration took place between 24 to 25 hours, 48 to 49 hours, and 72 to 73 hours after infection, and for BID, administration took place between 24 to 25 hours, 29 to 30 hours, 48 to 49 hours, 53 to 54 hours, 72 to 73 hours and 77 to 78 hours after infection.

The mark [10] stands for this setting: both QD and BID daily administration.

These results are taken from US20250276965A1, “PROCESS FOR THE PREPARATION OF ANTIBACTERIAL COMPOUNDS” (DISCUVA LIMITED, priority 2021, published 2025).

Molecules are shown by their SMILES.

Take `Cc1cnccc1-c1[nH]c(N)nc1-c1ccc2c(c1)N(C(=O)CN)CCO2` [Comparative Compound (III), reference compound]: in series [1], the “CFU value in the lung relative to stasis level” value was “relatively close to the stasis level”. Besides, the “CFU value in the blood relative to stasis level” value in series [2] (9 h) was “on or above the stasis level”.

With `Cc1cnccc1-c1[nH]c(N)nc1-c1ccc2c(c1)N(C(=O)C(C)(C)N)CCO2` [Compound (I), 2-amino-1-(6-(2-amino-5-(3-methylpyridin-4-yl)-1H-imidazol-4-yl)-2,3-dihydro-4H-benzo[b][1,4]oxazin-4-yl)-2-methylpropan-1-one], in series [3], the “MIC Range Klebsiella pneumonia (100 isolates)” value fell in the range of 0.25 to 8.00 µg/mL. In addition, the “MIC Range Proteus spp. (10 isolates)” value in [4] was 8 to 32 µg/mL. For the same compound, in series [5], the “more efficacious than comparative compound (III) in reducing the CFU in the bladder” value was determined as 3 log and the “more efficacious than comparative compound (III) in reducing the CFU in the urine” value is listed as 3 log. Moreover, the “bacterial burden in the urine at end of study” value in [5] (female C3H/HeN mice) was “below the limit of detection (LOD)”. Further, the “bacterial burden in the blood at end of study” value in series [2] (9 h after initial infection) is recorded as “below the limit of detection (LOD)”. The “ligands with inhibition higher than 50%” value in series [6] is listed as “only a single ligand”. For the same compound, the “MIC Range Providencia spp. (10 isolates)” value in series [7] fell in the range of 0.5 to 16 µg/mL. In addition, the “MIC Range Escherichia coli (100 isolates)” value in series [8] lay within 0.12 to 4.00 µg/mL. For the same compound, the “bacterial burden in the kidney at end of study” value in [9] (BID administration) is “below the limit of detection (LOD)”. In series [9] (setting [10]), the “bacterial burden in the bladder at end of study” value was “below the limit of detection (LOD)” and the “bacterial burden in the urine at end of study” value is recorded as “below the limit of detection (LOD)”.
